Laboratory results taken from US20230279372A1, “METHODS TO CONTROL LIPOKINE CONCENTRATIONS AND USES THEREOF” (Ohio State Innovation Foundation, priority 2020, published 2023).

What was measured:
[1] = test system: Wild-type C57BL/6 male mice; test: Acute injection, in vivo cardiac hemodynamics (pressure-volume analysis) in wild-type mice; conditions: acute injection via femoral vein, 1.5 μg/kg; compared to mice injected with saline
Excerpt: (§1) Cardiac pressure-volume analysis. Hemodynamic, systolic, and diastolic measurements performed as previously done. Briefly, mice were anesthetized with 1% isoflurane and a 1.4 F Millar catheter was advanced from the carotid artery into the left ventricle. LV pressure-volume dynamics were simultaneously measured over a wide range of heart rates (240-600 bpm). For the TNT experiments, since there were different baseline heart rates, data was normalized to the lowest heart rate. For the acute injection experiments, 12,13-diHOME, 9,10-diHOME, or 9-HODE were infused through the femoral vein (all at 1.5 μg/kg). All pressure-volume loop parameters were calculated using PV loop analysis software module for Lab Chart on ADInstruments.
Both +BAT and exercise improved cardiac function in mice and increased circulating 12,13-diHOME. To determine if 12,13-diHOME was responsible for the improved cardiac function in +BAT and exercise-trained mice, mice were acutely injected with 12,13-diHOME and in vivo cardiac hemodynamics were measured. Acute treatment of 12,13-diHOME improved systolic function (FIG. 3A; FIG. 8A) and diastolic function (FIG. 3B; FIG. 8B) compared to mice injected with saline. There was no effect of 9,10-diHOME or 9-HODE to alter systolic (FIG. 3A; FIG. 8A) or diastolic function (FIG. 3B; FIG. 8B).

isolated cardiomyocytes [2] = test: Cardiomyocyte sarcomere function and calcium transient, wild-type cardiomyocytes; assay type: cell-based, mice; conditions: acute superfusion of 10 μM; vs vehicle
Procedure: (§2) Measurements of Cardiomyocyte Sarcomere Function and Calcium Transient. Cardiomyocytes were isolated from wild-type C57BL/6 male mice (Charles River) or NOS1^−/− mice (B6; 129S4-Nos1^tm1Plh/J; stock no. 002633; Jackson Labs). Unloaded cardiomyocyte function (sarcomere shortening, kinetics and Ca^2+ transients) were measured as previously performed. In brief, hearts were rapidly excised and cannulated on a constant-flow Langendorff perfusion apparatus, and perfused via the aorta at 37° C. with buffer containing (in mM) 113 NaCl, 4.7 KCl, 0.6 KH2PO4, 0.6 Na2HPO4, 1.2 MgSO4, 12.4 BMD, 12 NaHCO3, 10 KHCO3, 10 HEPES 1M, and 30 Taurine, followed by digestion with liberase enzyme (0.25 mg/ml). After perfusion and digestion ventricles were removed and minced (under sterile conditions), filtered, and equilibrated with 1 mM CaCl2 and FBS at room temperature. Cardiomyocytes were plated on laminin-coated glass slides and placed on the stage of an inverted Olympus IX-71 microscope and superfused (˜1 ml/min at 30° C.) with contractile buffer containing (in mM, pH 7.4) 4 KCl, 131 NaCl, 1 MgCl2, 10 HEPES, 1 CaCl2), and 10 glucose. The cells were visualized using a 40× objective and field-stimulated at 1 Hz for 3 ms using a Myopacer Field-Stimulator system. Sarcomere length, time to contraction/relaxation and contraction/relaxation kinetics will were recorded using the IonOptix video imaging system and a Myocam-S Digital charge-coupled device camera. Changes in intracellular Ca^2+ levels were monitored using (0.5 μM) Fura-2 dual-excitation (360/380 nm) single emission (510 nm) ratiometric imaging. Measurements were taken at baseline and with acute superfusion of 10 μM 12,13-diHOME.

[3] = test system: cardiomyocytes constitutively expressing luciferase; test: Cardiomyocyte fatty acid uptake (FFA-SS-Luc); assay type: cell-based, mice; conditions: 10 μM, 10 μM FFA-SS-Luc, after 30 min of incubation; vs vehicle
Procedure: Cardiomyocyte Fatty Acid Uptake. Cardiomyocytes were isolated from 12-24 week old male LucTg (FVB-Tg(CAG-luc-GFP)L2G85Chco/J; stock no. 008450; Jackson Labs) chow-fed mice. Isolated cardiomyocytes (50,000 cells per well) were seeded onto laminin-coated 12-well plates according to standard protocols in FBS-free media for one hour. After one hour of serum-starve, 10 μm FFA-SS-Luc (Intrace Medical) conjugated probe was added to each well with or without 10 μM 12,13-diHOME directly before imaging using the IVIS Spectrum for […] optical imaging using sequential 3 min exposures for 30 min. Data were analyzed using Living Image Software, and movies were assembled from individual images using ImageJ.
Previous studies have indicated a role for 12,13-diHOME to increase fatty acid uptake. To test whether 12,13-diHOME increases fatty acid uptake in cardiomyocytes, cardiomyocytes constitutively expressing luciferase in vitro were isolated. Cells were treated with FFA-SS Luc, a fatty acid conjugated to luciferin, in the presence of 12,13-diHOME or a vehicle control.

NOS1^−/− cardiomyocyte = test: Cardiomyocyte sarcomere function and calcium transient, NOS1−/− cardiomyocytes; assay type: cell-based, mice; conditions: vs PBS
Procedure: as §2

NOS1^−/− mice = test: Acute injection of 12,13-diHOME, in vivo cardiac hemodynamics in NOS1−/− mice
Excerpt: as §1
Next, the mechanism through which 12,13-diHOME modulates cardiomyocyte function and respiration was investigated. It was shown that nitric oxide (NO) production via NO synthase type 1 (NOS1) is essential for the beneficial effects of exercise to the heart. Since +BAT had similar effects on the heart as exercise, 12,13-diHOME can function through a similar mechanism. Mice deficient in NOS1 (NOS1^−/−) were acutely injected with 12,13-diHOME and in vivo cardiac hemodynamics were measured. […] In addition, 12,13-diHOME had no effect on NOS1^−/− cardiomyocyte peak shortening, Ca^2+ transients, or kinetics (FIGS. 5C-5F).

isolated cardiomyocytes [4] = test: Seahorse bioanalyzer respiration, wild-type cardiomyocytes; assay type: cell-based, mice
Procedure: (§3) Seahorse bioanalyzer. Cardiomyocytes were isolated from 12-24 week old male C57BL/6 male (Charles river) or NOS1^−/− mice (B6; 129S4-Nos1^tm1Pth/J; stock no. 002633; Jackson Labs), chow fed mice. Isolated cardiomyocytes (25,000 per well) were seeded onto laminin-coated Seahorse Plates (Agilent) according to standard protocols. Cells were treated for 1 h with 10 μM 12,13-diHOME or were untreated. The oxygen-consumption rates (OCR; indicating mitochondrial respiration) and extracellular acidification rates (ECAR; indicating glycolysis rate) were monitored in a Seahorse XF24 instrument using the standard protocol of 3-min mix, 2-min wait and 3-min measure. Carbonyl cyanide-p-trifluoromethoxy-phenyl-hydrazon (FCCP; 2 μM) was used to determine the cells maximal respiratory capacity by allowing the electron transport chain to function at its maximal rate (maximal respiratory capacity is derived by subtracting non-mitochondrial respiration from the FCCP rate). Oligomycin (a complex V inhibitor; 2 μM) was used to derive ATP-linked respiration (by subtracting the oligomycin rate from baseline cellular OCR) and proton leak respiration (by subtracting non-mitochondrial respiration from the oligomycin rate). AntimycinA/Roteone (mitochondrial inhibitors; 0.5 μM) was used to determine non-mitochondrial respiration. For mechanistic experiments, cells were treated for 1 h with tetracaine (specific RyR inhibitor; 1 mM), 2,3-butanedione monoxime (BDM; myosin-ATPase inhibitor; […]) and nifedipine (L-type calcium channel inhibitor; 10 μM) were used. Data from wells of the same treatment group were averaged together and analyzed directly using Waves software. For the normalization of respiration to protein content, cells were lysed in RIPA buffer and protein concentration was measured by Bradford assay.

NOS1^−/− cardiomyocytes = test: Seahorse bioanalyzer respiration, NOS1−/− cardiomyocytes; assay type: cell-based, mice; conditions: vs vehicle
Procedure: as §3

Sham or +BAT mice = test: Oral gavage of sEH inhibitors in Sham or +BAT mice, in vivo cardiac hemodynamics; conditions: daily oral gavage 0.5 mg/kg for 2 weeks, starting 10 weeks after surgery
Procedure: Oral gavage of sEH inhibitors. C57BL/6 male mice (Charles River Laboratories) were fed a normal chow diet before and throughout the experiment. Sham and +BAT mice underwent daily oral gavage of sEH inhibitors beginning 10 weeks after the transplant or sham surgery. Mice underwent daily oral gavage with vehicle (Phosphate Buffer Saline [PBS]), or 25 mg/L AUDA in PBS (Cayman Chemicals #10007927), or 50 mg/L t-AUCB in PBS (Cayman Chemicals #16568). Mice were gavaged at 0.5 mg/kg daily for 14-16 days.
as §1, with “ADInstruments. […]” for “ADInstruments.”

[5] = incubation with RyR2 inhibitor tetracaine

CCCCC/C=C\CC(O)C(O)CCCCCCCC(=O)O (stereo not drawn) [9,10-diHOME]
diastolic function [1]: no effect | systolic function [1]: no effect

CCCCC/C=C\C=C\C(O)CCCCCCCC(=O)O (stereo not drawn) [9-HODE]
diastolic function [1]: no effect | systolic function [1]: no effect

CCCCCC(O)C(O)C/C=C\CCCCCCCC(=O)O (stereo not drawn) [12,13-diHOME]
Ca2+ transient amplitude (isolated cardiomyocytes [2]): increase | maximal velocity of relengthening (−dL/dt) (isolated cardiomyocytes [2]): greater | maximal velocity of shortening (+dL/dt) (isolated cardiomyocytes [2]): greater | peak cardiomyocyte shortening (isolated cardiomyocytes [2]): increased | diastolic function [1]: improved | systolic function [1]: improved | fatty acid uptake [3]: significantly elevated | Ca2+ transients (NOS1^−/− cardiomyocyte): no effect | kinetics (maximal velocity of shortening and relengthening) (NOS1^−/− cardiomyocyte): no effect | peak shortening (NOS1^−/− cardiomyocyte): no effect | diastolic function (NOS1^−/− mice): no effect | systolic function (NOS1^−/− mice): no effect | basal oxygen consumption rates (OCR) (isolated cardiomyocytes [4]; 10 μM for 1 h, vs vehicle): increased | maximal respiratory capacity (isolated cardiomyocytes [4]; 10 μM for 1 h, vs vehicle): increased | non-mitochondrial respiration (isolated cardiomyocytes [4]; 10 μM for 1 h, vs vehicle): increased | basal OCR (isolated cardiomyocytes [4]; in the presence or absence of RyR2 inhibitor tetracaine): increased | effect of 12,13-diHOME on maximal respiration (isolated cardiomyocytes [4]; [5]): blunted | effect of 12,13-diHOME on non-mitochondrial respiration (isolated cardiomyocytes [4]; [5]): blunted | effect of 12,13-diHOME on basal OCR under myosin inhibition (isolated cardiomyocytes [4]; with myosin inhibitor BDM): did not prevent | effect of 12,13-diHOME on maximal respiration under myosin inhibition (isolated cardiomyocytes [4]; with myosin inhibitor BDM): did not prevent | effect of 12,13-diHOME on non-mitochondrial respiration under myosin inhibition (isolated cardiomyocytes [4]; with myosin inhibitor BDM): prevented the increase | basal oxygen consumption rates (OCR) (NOS1^−/− cardiomyocytes): no effect | maximal respiratory capacity (NOS1^−/− cardiomyocytes): no effect | non-mitochondrial respiration (NOS1^−/− cardiomyocytes): no effect

O=C(O)CCCCCCCCCCCNC(=O)NC12CC3CC(CC(C3)C1)C2 [AUDA]
cardiac function (systolic and diastolic) of +BAT vs Sham mice in the presence of sEH inhibitor (Sham or +BAT mice): no effect of +BAT to improve cardiac function

CCCCNc1ccc(C(=O)OCCN(C)C)cc1 [tetracaine, reference compound]
maximal respiration (isolated cardiomyocytes [4]; tetracaine 1 mM for 1 h, independent of 12,13-diHOME): decrease
